Data taken from patent US5017618A, “Labile derivatives of ketone analogs of 3-substituted-1-alkylamino-2-propanols and their use as beta-adrenergic blockers” (priority 1989, dated 1991).

How the values were obtained:
[1] = In vivo distribution-metabolism in ocular tissues of rabbits; settings: rabbit, topical or ocular, 1 %
Description: (§1) Adult male New Zealand albino rabbits weighing 2.5-3.5 kg were used. Standard doses of 100 μl of 1% solution of the drugs in saline solution were administered topically to both eyes of each rabbit. After appropriate time intervals (30, 60 and 120 minutes), the animals were sacrificed. Aqueous humor was obtained by making a single puncture at the limbus using a 25 g×5/8" needle attached to 1 cm^3 syringe. Then the cornea and the iris-ciliary body were isolated. The tissues were pooled and homogenized using a Tekmar SDT tissuemizer in ice cold perchloric acid (0.05M) which contained 0.05% sodium metabisulfite as antioxidant. Samples were then rehomogenized in CH3 OH to prepare 10% homogenates, transferred to micro-filters and centrifuged for 20 minutes at 10000 r/minute to precipitate proteins. Aqueous humor was analyzed as such without any further dilution. Aliquots of 5-20 μl of the 10% tissue homogenate samples were analyzed by HPLC.

[2] = test system: ocular tissues of rabbits; experiment: as above; settings: for Concentration of propranolol: after topical propranolol.HCl 1a 1%
Description: as §1

[3] = test system: rabbit eyes; experiment: Local action of the drugs on the eyes (irritation, congestion, redness, lacrimation); type: in vivo, rabbit (male New Zealand albino); settings: for ocular irritation: 1% and 2.5%, both eyes, rabbits
[4] = in vivo
Description: A group of seven adult male Sprague-Dawley rats weighing 150-250 g was used. […] After 1, 3, 5, 20, 40 and 60 minutes, one mL of blood was withdrawn from the jugular vein and dropped immediately into a tared tube containing 1 mL of ice-cold acetonitrile. The tubes were vigorously shaken, centrifuged, decanted and analyzed for propranolol 1a and propranolone oxime 5a by HPLC. Quantitation was done by using a calibration curve obtained by addition of known amounts of propranolol oxime HCl 6a to blood obtained from a control rat pretreated with saline solution.
A high pressure liquid chromatography (HPLC) method was developed for the assay of the β-blockers and their ketoxime analogs in biological fluids. […] An ASI reverse phase chrompack C18 column, operated at ambient temperature, was used for all separation. The mobile phase used for separation of propranolol 1a and propranolone oxime 5a consisted of water (90 mL), 1-heptanesulfonic acid (1g), 0.1M acetic acid (10 mL), 0.1M triethanolamine (100 mL) and methanol (799 mL).

[5] = test system: resting heart rate of rats; experiment: Effect on resting heart rate in rats; type: in vivo, rat (male Sprague-Dawley); settings: 6 mg/kg i.v. (Example 6)
Description: (§2) Groups of seven male Sprague-Dawley rats weighing 150-250 g were used. Each animal was anesthetized with sodium pentobarbital (50 mg/kg) and the jugular vein was cannulated with PE50 tubing. This cannula was subcutaneously threaded around the neck and exteriorized dorsally. The cannula was filled with heparin solution ([…]) and sealed with a solid 22-gauge stylet. Animals were housed in individual stainless steel cages and at least 24 hours were allowed for recovery from the surgery. Food and water were provided ad libitum. On the day of the experiment, the heart rate of each rat was monitored with a plethsmograph and the data recorded on a Physioscribe II recorder. One hour was allowed as an equilibration period before any drugs were administered. Drugs were dissolved in normal saline as 0.3% solution and were administered intravenously at a dose of 6 mg/kg. The resting heart rate was then recorded after 1, 3, 5, 10 and 15 minutes following i.v. injection. […] A control group of seven animals was intravenously administered saline solution and was treated exactly in the same manner as the drug-treated groups. The significance of the difference between the effect of saline solution and the drugs under investigation on the resting heart rate and on isoprenaline tachycardia was analyzed using the student's "t" test. Values are given as mean ±S.E. of the mean. […] (.) carteolol HCl, 1c; .circle. propranolone ketoxime HCl, 6a; (.gradient.) timolone ketoxime oxalate, 6b; (Δ) N-isopropyl timolone ketoxime HCl, 6d; carteolone oxime HCl, 6c; and (---) saline solution. […] Drugs were administered to groups of 5 rats using a stomach tube and the heart rate was recorded for 1 hour. […] A control group of 5 rats was treated exactly in the same manner after the oral administration of the appropriate volume of saline solution.

[6] = test system: IOP of rabbits, treated eye; experiment: Unilateral administration, IOP of rabbits; type: in vivo, rabbit; settings: 0.5% and 1.0% solution in saline, one eye
Description: (§3) The animals were kept in individual cages with free access to food and water. Intraocular pressure was measured using a Digilab model 30R pneumatonometer. The pneumatonometer readings were checked at least twice a day using the Digilab calibration verifier. All measurements were obtained from unrestrained, unanesthetized rabbits. One drop of 0.5% propacaine (Ophthetic-Allergen Pharmaceuticals, Inc.) diluted 1:2 with saline was instilled in each eye immediately prior to IOP measurement. Drugs were administered as 1 or 2.5% solution in buffer pH 7.4 or in saline in both eyes of a group of at least four rabbits. Another group of at least three rabbits served as control and was administered the carrier only. IOP was recorded after 30 and 60 minutes and then after 2, 3, 4, 6 and 8 hours following the drug or carrier administration. Values are given as means ± standard error (S.E.) of the mean. The significance of the change was determined using the student's t-test.
The unilateral administration of propranolol oxime hydrochloride 6a was subsequently studied at two different concentrations, 0.5% and 1.0%. Drugs were administered as 0.5% or 1.0% solution in saline in one of the eyes of each animal in a group of five rabbits. The untreated eye of each rabbit served as a control and received vehicle only. IOP was recorded as described above. […]

[7] = test system: isoprenaline-induced tachycardia; experiment: Effect on isoprenaline-induced tachycardia in rats (β-adrenergic antagonist activity); type: in vivo, rat (male Sprague-Dawley); settings: rats; 6 mg/kg i.v.; isoprenaline 50 μg/kg s.c.; FIG. 1
Description: as §2

[8] = test system: rabbit cornea (intraocular enzymes); type: in vivo; settings: rabbit, in vivo
Description: The tissue was homogenized in an alkaline buffer (pH 10.0) to give 10% (w/v) homogenate, and extracted twice with equal volumes of methylene chloride/diethyl ether mixture (1:4, v/v) by shaking for 15 minutes. The organic layer was separated, then re-extractedwith an equal volume of aqueous 0.1M hydrochloric acid solution. The aqueous phase was made alkaline (pH 10.0) and extracted with methylene chloride/diethyl ether, the organic layer was transferred to a deactivated glass vial, and the solvent was evaporated at reduced pressure under nitrogen stream. The residue was dissolved in 0.01M hydrochloric acid solution and analyzed by high-performance liquid chromatography (HPLC). A Supelcosil LC-8-DB analytical column (7.5 cm×4.6 mm i.d., 3 μm particle size) and mobile phase (1.5 mL/min flow rate) consisting of 30% acetonitrile in an aqueous buffer solution of 0.02M monobasic potassium phosphate (adjusted to pH 3.0 with phosphoric acid) and 0.01 (v/v) triethylamine. UV detection at 280 nm was applied. […] The same experiment was carried out by administering 1-(isopropylamino)-3-(2-allylphenoxy)-2-propanone oxime hydrochloride salt in 2% (w/v) aqueous solution. […]

[9] = test system: Intraocular Pressure (IOP) of Rabbits; experiment: Effect on the Intraocular Pressure (IOP) of Rabbits; type: in vivo, rabbit (male New Zealand albino)
Description: as §3, with “IOP was recorded after 30 and 60 minutes and then after 2, 3, 4, 6 and 8 hours following the drug or carrier administration.” left out

[10] = aqueous humor, Concentration of propranolol
[11] = aqueous humor, Tissue concentration
[12] = cornea, Concentration of propranolol
[13] = iris-ciliary body, Tissue concentration

## CC(C)NCC(O)COc1cccc2ccccc12 (centres unmarked) [Propranolol 1a, 1-(isopropylamino)-3-(1-naphthyloxy)-2-propanol]
[1]; [10]
  concentration at 0.5 h: 1280 ± 190 ng/g
  concentration at 1 h: 260 ± 80 ng/g
[1]; [11]
  concentration at 0.5 h: 40 ± 20 ng/g
  concentration at 1 h: 710 ± 110 ng/g
[1]; [12]
  concentration at 0.5 h: 47100 ± 5570 ng/g
  concentration at 1 h: 14500 ± 2970 ng/g
[1]; cornea, Tissue concentration
  concentration at 0.5 h: 1680 ± 750 ng/g
  concentration at 1 h: 1140 ± 290 ng/g
  concentration at 2 h: 1140 ± 220 ng/g
[1]; iris-ciliary body, Concentration of propranolol
  concentration at 0.5 h: 8050 ± 1470 ng/g
[1]; [13]
  concentration at 0.5 h: 2110 ± 290 ng/g
  concentration at 1 h: 1790 ± 200 ng/g
  concentration at 2 h: 430 ± 110 ng/g
[2]; aqueous humor, 120 min.
  Concentration of propranolol: 0.00 ± 0.00 mcg/g tissue
[2]; cornea, 120 min.
  Concentration of propranolol: 0.00 ± 0.00 mcg/g tissue
[2]; iris-ciliary body, 60 min.
  Concentration of propranolol: 0.00 ± 0.00 mcg/g tissue
[2]; iris-ciliary body, 120 min.
  Concentration of propranolol: 0.00 ± 0.00 mcg/g tissue
[2]; after topical propranolone oxime HCl 6a 1%, aqueous humor, 120 min.
  Tissue concentration: 0.00 ± 0.00 mcg/g tissue
[2]; rabbit, in vivo
  detection of propranolol in eye compartments: could be detected in measurable concentrations in the different eye compartments for the first two hours
  detection of propranolol in eye tissues: could not be detected in any of the tested eye tissues
  detection of propranolol in iris-ciliary body: completely disappeared from the iris-ciliary body
[3]
  ocular irritation: ocular irritation which always accompanied propranolol administration at both dose levels
[4]
  detection of propranolol in rat's blood: not detected in rat's blood

## CC(C)NCC(COc1cccc2ccccc12)=NO.Cl [Propranolone oxime HCl 6a, 1-(Isopropylamino)-3-(1-naphthyloxy)-2-propanone oxime hydrochloride]
[5]
  activity on resting heart rate (negative chronotropic action): highest activity
[6]
  decrease in IOP, unilateral administration: Significant decrease in the IOP was observed at both levels, only in the treated eye
[7]
  β-adrenergic antagonist activity against isoprenaline-tachycardia: most effective
[8]
  metabolites identified in cornea: Peaks were identified as the E- and Z-isomers of the ketoxime administered, as the corresponding ketone 1-(isopropylamino)-3-(naphthyloxy)-2-propanone, and as the β-adrenergic antagonist 1-(isopropylamino)-3-(naphthyloxy)-2-propanol(propranol)
[3]; 0.5% and 1.0% solution in saline, one eye
  irritant action, unilateral administration: No irritant action was noted
[3]
  ocular irritation: completely devoid of the ocular irritation
[9]; 1% solution, 30 min.
  % change after treatment (IOP): -3.23%
  IOP, treated: 26.9 ± 0.58 mm/Hg
[9]; 1% solution, 60 min.
  % change after treatment (IOP): -11.51%
  IOP, treated: 24.0 ± 0.60 mm/Hg
[9]; 1% solution, 2 hrs.
  % change after treatment (IOP): -15.82%
  IOP, treated: 23.4 ± 0.51 mm/Hg
[9]; 1% solution, 3 hrs.
  % change after treatment (IOP): -16.18%
  IOP, treated: 23.3 ± 0.35 mm/Hg
[9]; 1% solution, 4 hrs.
  % change after treatment (IOP): -20.14%
  IOP, treated: 22.2 ± 0.42 mm/Hg
[9]; 1% solution, 6 hrs.
  % change after treatment (IOP): -7.08%
  IOP, treated: 25.8 ± 0.56 mm/Hg
[9]; 1% solution, 8 hrs.
  % change after treatment (IOP): +0.50%
  IOP, treated: 27.9 ± 0.62 mm/Hg
[9]; 1% solution, time zero
  % change after treatment (IOP): 0.00%
  IOP, treated: 27.8 ± 0.62 mm/Hg
[9]; 2.5% solution, 30 min.
  % change after treatment (IOP): +1.92%
  IOP, treated: 26.5 ± 0.63 mm/Hg
[9]; 2.5% solution, 60 min.
  % change after treatment (IOP): -10.00%
  IOP, treated: 23.4 ± 0.55 mm/Hg
[9]; 2.5% solution, 2 hrs.
  % change after treatment (IOP): -13.08%
  IOP, treated: 22.6 ± 0.43 mm/Hg
[9]; 2.5% solution, 3 hrs.
  % change after treatment (IOP): -18.46%
  IOP, treated: 21.2 ± 0.28 mm/Hg
[9]; 2.5% solution, 4 hrs.
  IOP, treated: 20.4 ± 0.34 mm/Hg
[9]; 2.5% solution, 6 hrs.
  % change after treatment (IOP): -9.23%
  IOP, treated: 23.6 ± 0.48 mm/Hg
[9]; 2.5% solution, 8 hrs.
  % change after treatment (IOP): -0.77%
  IOP, treated: 25.8 ± 0.65 mm/Hg
[9]; 2.5% solution, time zero
  % change after treatment (IOP): 0.00%
  IOP, treated: 26.0 ± 0.48 mm/Hg
[9]; same dose levels, rabbits
  ocular hypotensive activity compared with parent β-blocker: much more pronounced and prolonged than that of propranolol itself
[9]; topical, rabbits, dose levels used
  ocular hypotensive activity (in words): has shown the highest activity at both tested concentration levels, 1 and 2.5%
